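Briefly, cells in 96-well plates were exposed to five compound concentrations for 48 h, and endpoints were estimated by linear interpolation. Abbreviation: GI50, concentration required for 50% inhibition of growth. At the TGI there is no net growth.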
What was measured:
Test in all cases: NCI anticancer screen, dose series, 48 h
COLO 205 colon = tested on: COLO 205 colon
UACC-257 melanoma = tested on: UACC-257 melanoma
TK-10 renal = tested on: TK-10 renal
U251 CNS = tested on: U251 CNS
SNB-75 CNS = tested on: SNB-75 CNS
NCI-H460 lung = tested on: NCI-H460 lung
HCC-2998 colon = tested on: HCC-2998 colon
EKVX NSCLC = tested on: EKVX NSCLC
SF-295 CNS = tested on: SF-295 CNS
SR leukemia = tested on: SR leukemia

Row | SMILES | TGI (COLO 205 colon) | TGI (UACC-257 melanoma) | TGI (TK-10 renal) | TGI (U251 CNS) | TGI (SNB-75 CNS) | TGI (NCI-H460 lung) | TGI (HCC-2998 colon) | TGI (EKVX NSCLC) | TGI (SF-295 CNS) | GI50 (COLO 205 colon) | GI50 (TK-10 renal) | GI50 (U251 CNS) | GI50 (SR leukemia) | TGI (SR leukemia) | GI50 (NCI-H460 lung) | GI50 (HCC-2998 colon) | GI50 (SF-295 CNS) | GI50 (UACC-257 melanoma) | GI50 (SNB-75 CNS) | GI50 (EKVX NSCLC)
1 | Cc1[nH]c2cc([N+](=O)[O-])ccc2c1[N+](=O)[O-] | 33 µM | 43.9 µM | 75.8 µM | 71.2 µM | 57.5 µM | 70.3 µM | 52.7 µM | 49.6 µM | 48.8 µM | – | – | – | – | – | – | – | – | – | – | –
2 | O=C(N/C(=C\c1ccc(/C=C(\NC(=O)c2ccccc2)c2nc3c(O)nc(S)nc3[nH]2)cc1)c1nc2c(O)nc(S)nc2[nH]1)c1ccccc1 | > 100 µM | > 100 µM | > 100 µM | > 100 µM | 84.7 µM | > 100 µM | > 100 µM | > 100 µM | > 100 µM | – | – | – | – | – | – | – | – | – | – | –
3 | Clc1ccc(-c2nc(NCc3ccco3)c3ccccc3n2)c(Cl)c1 | > 100 µM | – | 7.1 µM | 47.4 µM | – | > 100 µM | 46.9 µM | – | 33.5 µM | 21.4 µM | 2.38 µM | 16.5 µM | 10.1 µM | 44.7 µM | 32.9 µM | 18.2 µM | 13.6 µM | – | – | –
4 | S=C(SSC(=S)N1CCCCC1)N1CCCCC1 | 24.1 µM | 82.9 µM | 82.2 µM | 45.2 µM | 57.6 µM | 41.5 µM | > 100 µM | > 100 µM | > 100 µM | 11.8 µM | 22.9 µM | 12.2 µM | – | – | 10.9 µM | 28.9 µM | 40.1 µM | 23.6 µM | 16.7 µM | 28.4 µM
5 | COc1cc(C(=O)O[C@H](C(=O)NCCCCNC(=O)[C@@H](OC(=O)c2cc(OC)cc3c(C)cccc23)[C@]2(C)CO2)[C@]2(C)CO2)c2cccc(C)c2c1 | 3.65 µM | 0.222 µM | 1.36 µM | 0.107 µM | 0.373 µM | 0.228 µM | 0.343 µM | 2.57 µM | 0.672 µM | 0.111 µM | 0.469 µM | < 0.01 µM | – | – | < 0.0354 µM | 0.0442 µM | 0.122 µM | – | 0.114 µM | 0.227 µM
6 | COc1ccc2nc3ccccc3c(NCCCCN(CCCl)CCCl)c2c1 | – | 3.34 µM | – | 1.83 µM | 2.04 µM | 0.69 µM | 6.06 µM | – | 18.6 µM | – | – | – | – | 2.79 µM | – | – | – | – | – | –
7 | CSc1ccc(C(=O)/C=C/c2ccc(Cl)cc2Cl)cc1 | – | 91.4 µM | 52.9 µM | 32 µM | – | 96.4 µM | 35.8 µM | 78.8 µM | > 100 µM | – | 20.9 µM | 16.9 µM | 0.351 µM | 0.909 µM | 26.3 µM | 17.2 µM | 29.5 µM | 24 µM | – | 20.2 µM
8 | COC(=O)[C@@]12C3=NO[C@]1(C(=O)OC)C(O[Si](C)(C)C(C)(C)C)[C@@H](OC(C)=O)[C@@H](OC(C)=O)[C@@H]2[C@@H](OCc1ccccc1)CC3 (some centres undefined) | > 100 µM | > 100 µM | > 100 µM | > 100 µM | > 73.7 µM | > 100 µM | > 100 µM | > 100 µM | > 100 µM | – | – | – | – | – | – | – | – | – | – | –
9 | CSc1nc(SC)c2c(C)cn(COCCOC(=O)c3ccccc3)c2n1 | > 100 µM | – | > 100 µM | > 100 µM | > 100 µM | > 100 µM | > 100 µM | > 100 µM | > 100 µM | – | – | – | – | > 100 µM | – | – | – | – | – | –
10 | COc1ccc2c(c1)[n+]([O-])c(-c1ccccc1Cl)c(N)[n+]2[O-] | 32.6 µM | > 100 µM | – | > 100 µM | > 100 µM | > 100 µM | – | > 100 µM | > 100 µM | – | – | – | – | > 100 µM | – | – | – | – | – | –
11 | CC(=O)[CH-]C(=O)c1ccccc1.CC(=O)[CH-]C(=O)c1ccccc1.CC(=O)[CH-]C(=O)c1ccccc1.[Ga+3] | 32.3 µM | 31.5 µM | 68.6 µM | 25.8 µM | 69.3 µM | 28.7 µM | 29.9 µM | 57.6 µM | 47.5 µM | 17.7 µM | 24 µM | 12.7 µM | – | – | 11.8 µM | 13.9 µM | 23.3 µM | 16.2 µM | 20.3 µM | 22.7 µM
12 | CCN(CC)C(=S)SS(C)(=O)=O | 29.7 µM | 52.3 µM | 32.2 µM | 31.5 µM | > 100 µM | – | – | 75.8 µM | 98 µM | – | – | – | – | – | – | – | – | – | – | –
13 | COC(=O)c1cc2cc(/C=C3/SC(=S)N(N(C(C)=O)C(C)=O)C3=O)oc2n1Cc1ccccc1 | > 100 µM | 74.9 µM | 35.1 µM | 30.8 µM | > 100 µM | > 100 µM | 40.5 µM | > 100 µM | 52.4 µM | 77.6 µM | 17.4 µM | 12.8 µM | – | – | 19.3 µM | 17.3 µM | 13.2 µM | 25 µM | 37.1 µM | 31 µM
14 | O=C(NCCNCCO)c1ccc(Nc2nc3ccccc3c3occc23)cc1 | > 100 µM | – | 6.67 µM | 23.8 µM | 27.2 µM | > 100 µM | 5.27 µM | 32 µM | 29.8 µM | 29.1 µM | 2.11 µM | 11.2 µM | – | – | 28.5 µM | 2.14 µM | 14.1 µM | – | 9.26 µM | 13.9 µM
15 | CCN(CC)c1c(C)nnn1C1OC(COC(C)=O)C(OC(C)=O)C(OC(C)=O)C1OC(C)=O (centres undefined) | > 100 µM | > 100 µM | > 100 µM | > 100 µM | > 100 µM | > 100 µM | > 100 µM | > 100 µM | > 100 µM | – | – | – | – | – | – | – | – | – | – | –
16 | O=C1C(Cl)=C(NCCCN(CCCNC2=C(Cl)C(=O)c3ccccc3C2=O)C2=C(Cl)C(=O)c3ccccc3C2=O)C(=O)c2ccccc21 | – | – | 36.9 µM | 6.27 µM | 39.3 µM | > 100 µM | 6.37 µM | 13.9 µM | 14.7 µM | – | 17.9 µM | 2.66 µM | – | – | 3.02 µM | 2.45 µM | 3.07 µM | – | 20.6 µM | 2.62 µM
17 | CCN(CC)c1ccc(C2N3CCCCC3[C@@H]3c4[nH]c5ccccc5c4CCN23)cc1 (some centres undefined) | 93.2 µM | 77.8 µM | 86.1 µM | > 100 µM | 29.1 µM | 55.5 µM | – | > 100 µM | > 100 µM | – | – | – | – | – | – | – | – | – | – | –
18 | NC(=O)c1ncn(C2OC(CO)C(O)C2O)c1O (centres undefined) | – | – | > 100 µM | > 100 µM | > 100 µM | > 100 µM | > 100 µM | > 100 µM | > 100 µM | – | – | – | – | > 100 µM | – | – | – | – | – | –
